SMILES strings stand for the structures.

The test system of this assay is Mus musculus. Briefly: Topical antiinflammatory activity in mice, expressed as potency was determined. It is filed as functional.
Consider `CC(=O)OCC(=O)[C@@]12ON(C)C[C@@H]1CC1C3CCC4=CC(=O)C=CC4(C)[C@H]3C(O)CC12C` (some centres not stated), for which the Potency is listed as 75.
In the case of `CC(=O)OCC(=O)[C@@]12ON(C)C[C@@H]1CC1C3CCC4=CC(=O)C=CC4(C)[C@@]3(F)C(O)CC12C` (some centres not stated) it was 156; in that of `CC(=O)OCC(=O)[C@@]12ON(Cc3ccccc3)C[C@@H]1CC1C3CCC4=CC(=O)C=CC4(C)[C@@]3(F)C(O)CC12C` (some centres not stated), 62; in that of `CC(=O)OCC(=O)[C@@]12N=C(C)O[C@@H]1CC1C3CCC4=CC(=O)C=CC4(C)[C@@]3(F)C(O)CC12C` (some centres not stated), 104.
With `CC(=O)OCC(=O)[C@@]12ON(Cc3ccccc3)C[C@@H]1CC1C3CCC4=CC(=O)C=CC4(C)[C@H]3C(O)CC12C` (some centres not stated) the figure was 69; with `CC(=O)OCC(=O)[C@@]12OC(C)(C)O[C@@H]1CC1C3CCC4=CC(=O)C=CC4(C)[C@@]3(F)C(O)CC12C` (some centres not stated), 117; with `CC(=O)OCC(=O)[C@@]12OC(C)(C)O[C@@H]1CC1C3CCC4=CC(=O)C=CC4(C)[C@H]3C(O)CC12C` (some centres not stated), 102.

The values are drawn from ChEMBL document CHEMBL1121992, “Synthesis and topical antiinflammatory activity of some steroidal [16 alpha, 17 alpha-d]Isoxazolidines” (1982).
